US20080274522A1, “METHOD FOR THE PRODUCTION OF 2-BUTANONE” (priority 2007, published 2008)
Where two headings read alike, the source gives them in different places.

What was measured:
[1] = test system: Lactobacillus plantarum PN0512; test: Growth of L. plantarum PN0512 in the presence of butanols at different temperatures (OD600); assay type: cell-based; parameters: key to Growth of L. plantarum PN0512 in the presence of 1-butanol / Growth of L. plantarum PN0512 in the presence of isobutanol / Growth of L. plantarum PN0512 in the presence of 2-butanol: +: growth observed as an increase in OD600.; −: no growth observed, i.e. no change in OD600
Description: Tolerance levels of bacterial strain Lactobacillus plantarum PN0512 (ATCC # PTA-7727) were determined at 25° C., 30° C. and 37° C. as follows. The strain was cultured in S30L medium (i.e., 10 mM ammonium sulfate, 5 mM potassium phosphate buffer, pH 7.0, 50 mM MOPS, pH 7.0, 2 mM MgCl2, 0.7 mM CaCl2, 50 μM MnCl2, 1 μM FeCl3, 1 μM ZnCl2, 1.72 μM CuCl2, 2.53 μM COCl2, 2.42 μM Na2MoO4, 2 μM thiamine hydrochloride, 10 mM glucose, and 0.2% yeast extract). An overnight culture in the absence of any test compound was started in 15 mL of the S30L medium in a 150 mL flask, with incubation at 37° C. in a shaking water bath. The next morning, the overnight culture was diluted into three 500 mL flasks containing 150 mL of fresh medium to an initial OD600 of about 0.08. Each flask was incubated in a shaking water bath, one each at 25° C., 30° C. and 37° C. Each large culture was allowed to acclimate at the test temperature for at least 0.5 h. […] Growth was followed by measuring OD600 for six hours after addition of the compounds.

[2] = test system: E. coli strain MG1655; conditions: log-phase
Description: A similar study was done with log-phase cultures of E. coli grown in a defined medium. E. coli strain MG1655 was allowed to grow overnight in MOPS 0.2% glucose medium (Teknova, Half Moon Bay, Calif.) at 42° C. or 28° C. The following day, the cultures were diluted into fresh medium and allowed to grow at the same temperature until in the log phase of growth. […] To these were added 10 μL of the log phase cultures and the tubes were immediately placed in shaking incubators at 42° C. or 28° C. or left on ice for 30 min. […] Then 5 μL of the undiluted treated cultures were spotted on LB agar plates. Subsequent 10-fold serial dilutions of 10^−3, 10^−4, 10^−5 and 10^−6 of the exposed cultures were done by serial pipetting of 20 μL, starting with the 10^−2 dilution cultures, into 180 μL of LB medium in the microplate, using a multi-channel pipette. Prior to each transfer, the cultures were mixed by pipetting up and down six times. Each dilution (5 μL) was spotted onto an LB plate using a multi-channel pipette and allowed to soak into the plate. The plates were inverted and incubated overnight at 37° C. […] Survival of 0% was recorded when no colonies in the spots of the undiluted or any of the serial dilutions were observed.

[3] = 1-butanol 1.5 % (w/v), grown at 28° C.
[4] = 1-butanol 1.5 % (w/v), grown at 42° C.
[5] = 1-butanol 2.0 % (w/v), grown at 28° C.
[6] = 1-butanol 2.0 % (w/v), grown at 42° C.
[7] = 1-butanol 3.0 % (w/v), grown at 28° C.
[8] = 1-butanol 3.0 % (w/v), grown at 42° C.
[9] = 1-butanol 4.0 % (w/v), grown at 28° C.
[10] = 1-butanol 4.0 % (w/v), grown at 42° C.
[11] = 1-butanol […] (w/v), grown at 42° C.

1-butanol
Growth of L. plantarum PN0512 in the presence of 1-butanol ([1]; 1.0 % w/v, 37° C.): + | Growth of L. plantarum PN0512 in the presence of 1-butanol ([1]; 1.2 % w/v, 37° C.): + | Growth of L. plantarum PN0512 in the presence of 1-butanol ([1]; 1.4 % w/v, 37° C.): + | Growth of L. plantarum PN0512 in the presence of 1-butanol ([1]; 1.5 % w/v, 25° C.): + | Growth of L. plantarum PN0512 in the presence of 1-butanol ([1]; 1.5 % w/v, 30° C.): + | Growth of L. plantarum PN0512 in the presence of 1-butanol ([1]; 1.5 % w/v, 37° C.): + | Growth of L. plantarum PN0512 in the presence of 1-butanol ([1]; 1.6 % w/v, 37° C.): + | Growth of L. plantarum PN0512 in the presence of 1-butanol ([1]; 1.8 % w/v, 37° C.): + | Growth of L. plantarum PN0512 in the presence of 1-butanol ([1]; 2.0 % w/v, 25° C.): + | Growth of L. plantarum PN0512 in the presence of 1-butanol ([1]; 2.0 % w/v, 30° C.): + | Growth of L. plantarum PN0512 in the presence of 1-butanol ([1]; 2.0 % w/v, 37° C.): + | Growth of L. plantarum PN0512 in the presence of 1-butanol ([1]; 2.1 % w/v, 37° C.): + | Growth of L. plantarum PN0512 in the presence of 1-butanol ([1]; 2.2 % w/v, 37° C.): + | Growth of L. plantarum PN0512 in the presence of 1-butanol ([1]; 2.3 % w/v, 37° C.): + | Growth of L. plantarum PN0512 in the presence of 1-butanol ([1]; 2.4 % w/v, 25° C.): + | Growth of L. plantarum PN0512 in the presence of 1-butanol ([1]; 2.4 % w/v, 30° C.): + | Growth of L. plantarum PN0512 in the presence of 1-butanol ([1]; 2.4 % w/v, 37° C.): −^2 | Growth of L. plantarum PN0512 in the presence of 1-butanol ([1]; 2.7 % w/v, 30° C.): + | Growth of L. plantarum PN0512 in the presence of 1-butanol ([1]; 2.7 % w/v, 37° C.): − | Growth of L. plantarum PN0512 in the presence of 1-butanol ([1]; 2.9 % w/v, 25° C.): + | Growth of L. plantarum PN0512 in the presence of 1-butanol ([1]; 2.9 % w/v, 30° C.): − | Growth of L. plantarum PN0512 in the presence of 1-butanol ([1]; 2.9 % w/v, 37° C.): − | Growth of L. plantarum PN0512 in the presence of 1-butanol ([1]; 3.1 % w/v, 25° C.): + | Growth of L. plantarum PN0512 in the presence of 1-butanol ([1]; 3.1 % w/v, 30° C.): − | Growth of L. plantarum PN0512 in the presence of 1-butanol ([1]; 3.1 % w/v, 37° C.): − | Growth of L. plantarum PN0512 in the presence of 1-butanol ([1]; 3.2 % w/v, 25° C.): − | Growth of L. plantarum PN0512 in the presence of 1-butanol ([1]; 3.2 % w/v, 30° C.): − | Growth of L. plantarum PN0512 in the presence of 1-butanol ([1]; 3.3 % w/v, 25° C.): − | Growth of L. plantarum PN0512 in the presence of 1-butanol ([1]; 3.4 % w/v, 25° C.): − | Growth of L. plantarum PN0512 in the presence of 1-butanol ([1]; 3.4 % w/v, 30° C.): − | Concentration in which growth was observed ([1]; 25° C.): 3.1% | Concentration in which growth was not observed ([1]; 30° C.): 2.9% | Concentration in which growth was observed ([1]; 30° C.): 2.7% | Concentration in which growth was not observed ([1]; 37° C.): 2.4% | Concentration in which growth was observed ([1]; 37° C.): 2.3% | Growth of L. plantarum PN0512 in the presence of 1-butanol ([1]; […] w/v, 37° C.): − | % survival after 30 min exposure at 42° C. ([2]; 1-butanol 1.0 % (w/v), grown at 28° C.): 100% | % survival after 30 min exposure at 42° C. ([2]; 1-butanol 1.0 % (w/v), grown at 42° C.): 100% | % survival after 30 min exposure at 28° C. [2, 3]: 100% | % survival after 30 min exposure at 42° C. [2, 3]: 0% | % survival after 30 min exposure at 28° C. [2, 4]: 100% | % survival after 30 min exposure at 42° C. [2, 4]: 0% | % survival after 30 min exposure at 28° C. [2, 5]: 100% | % survival after 30 min exposure at 42° C. [2, 5]: 0% | % survival after 30 min exposure at 28° C. [2, 6]: 100% | % survival after 30 min exposure at 42° C. [2, 6]: 0% | % survival after 30 min exposure at 28° C. [2, 7]: 0% | % survival after 30 min exposure at 42° C. [2, 7]: 0% | % survival after 30 min exposure at 0° C. ([2]; 1-butanol 3.0 % (w/v), grown at 29° C.): 100% | % survival after 30 min exposure at 0° C. [2, 8]: 100% | % survival after 30 min exposure at 28° C. [2, 8]: 0% | % survival after 30 min exposure at 42° C. [2, 8]: 0% | % survival after 30 min exposure at 28° C. [2, 9]: 0% | % survival after 30 min exposure at 42° C. [2, 9]: 0% | % survival after 30 min exposure at 0° C. ([2]; 1-butanol 4.0 % (w/v), grown at 29° C.): 100% | % survival after 30 min exposure at 0° C. [2, 10]: 100% | % survival after 30 min exposure at 28° C. [2, 10]: 0.001% | % survival after 30 min exposure at 42° C. [2, 10]: 0% | % survival after 30 min exposure at 0° C. ([2]; 1-butanol 5.0 % (w/v), grown at 29° C.): 50% | % survival after 30 min exposure at 0° C. ([2]; 1-butanol 5.0 % (w/v), grown at 42° C.): 10% | % survival after 30 min exposure at 0° C. ([2]; 1-butanol 6.0 % (w/v), grown at 29° C.): 1% | % survival after 30 min exposure at 0° C. ([2]; 1-butanol 6.0 % (w/v), grown at 42° C.): 1% | % survival after 30 min exposure at 42° C. ([2]; 1-butanol […] (w/v), grown at 28° C.): 0% | % survival after 30 min exposure at 0° C. ([2]; 1-butanol […] (w/v), grown at 29° C.): 100% | % survival after 30 min exposure at 0° C. [2, 11]: 100% | % survival after 30 min exposure at 42° C. [2, 11]: 0%
